Assay results: patent US20110039721A1, “METHOD FOR PREDICTION ABOUT CARCINOGENICITY OF SUBSTANCE IN RODENT” (Chemicals Evaluation and Research Institute, priority 2007, published 2011)
Where two headings read alike, the source gives them in different places.

Legend:
[1] = cited from earlier work
[2] = system: mRNA expressed from the genes (A) to (D) in rat liver; test: Behavior of genes (mRNA expression level, oligo-DNA microarray) in rat liver after 28-day oral administration; type: in vivo
Method in brief: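 Oral gavage, once daily × 28 days; male F344 SPF rats, 5 wk, n=4/group; vehicle controls given equal solvent volume. Liver excised day 28, total RNA purified. Significance: ≥1.5× or ≤1/1.5 of vehicle, direction concordant with other carcinogens.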

[3] = system: rodent; settings: cited from earlier work
[4] = system: liver; settings: cited from earlier work
[5] = gene group (A), Unigene No. Rn.167075
[6] = gene group (C), Unigene No. Rn.120914

For `Cl.Cl.Nc1ccc(N)cc1` [TS059, p-Phenylenediamine 2HCl], the “Mutagenicity by Ames test” value ([1]; classification of the substance (M+/M−)) is given as “M+”, the “Behavior of gene caused by administration of chemical substance, Gene No. 4846” value ([2]; gene group (A), Unigene No. Rn.144554) is given as “−” and the “Behavior of gene caused by administration of chemical substance, Gene No. 2026” value [2, 5] is given as “−”. For the same molecule, the “Behavior of gene caused by administration of chemical substance, Gene No. 4218” value [2, 5] was “−”, the “Behavior of gene caused by administration of chemical substance, Gene No. 6182” value ([2]; gene group (A), Unigene No. Rn.5834) was “−” and the “Behavior of gene caused by administration of chemical substance, Gene No. 5600” value ([2]; gene group (A), Unigene No. Rn.9836) was “−”. The “Behavior of gene caused by administration of chemical substance, Gene No. 1494” value ([2]; gene group (B), Unigene No. Rn.1430) was “−”, the “Behavior of gene caused by administration of chemical substance, Gene No. 2045” value ([2]; gene group (B), Unigene No. Rn.19329) was “−” and the “Behavior of gene caused by administration of chemical substance, Gene No. 2203” value ([2]; gene group (B), Unigene No. Rn.21240) was “−”. For the same molecule, the “Behavior of gene caused by administration of chemical substance, Gene No. 533” value ([2]; gene group (C), Unigene No. Rn.106184) was “−”, the “Behavior of gene caused by administration of chemical substance, Gene No. 725” value ([2]; gene group (C), Unigene No. Rn.108075) was “−” and the “Behavior of gene caused by administration of chemical substance, Gene No. 1163” value ([2]; gene group (C), Unigene No. Rn.11766) was “−”. The “Behavior of gene caused by administration of chemical substance, Gene No. 4973” value ([2]; gene group (C), Unigene No. Rn.118529) was “+”, the “Behavior of gene caused by administration of chemical substance, Gene No. 4095” value ([2]; gene group (C), Unigene No. Rn.119024) was “+” and the “Behavior of gene caused by administration of chemical substance, Gene No. 1334” value [2, 6] was “+”. The “Behavior of gene caused by administration of chemical substance, Gene No. 6620” value [2, 6] was “+”, the “Behavior of gene caused by administration of chemical substance, Gene No. 6303” value ([2]; gene group (C), Unigene No. Rn.123063) was “−” and the “Behavior of gene caused by administration of chemical substance, Gene No. 5878” value ([2]; gene group (C), Unigene No. Rn.143213) was “−”. The “Behavior of gene caused by administration of chemical substance, Gene No. 1131” value ([2]; gene group (C), Unigene No. Rn.144946) was “−”, the “Behavior of gene caused by administration of chemical substance, Gene No. 1562” value ([2]; gene group (C), Unigene No. Rn.14744) was “+” and the “Behavior of gene caused by administration of chemical substance, Gene No. 1741” value ([2]; gene group (C), Unigene No. Rn.1647) was “+”. The “Behavior of gene caused by administration of chemical substance, Gene No. 893” value ([2]; gene group (C), Unigene No. Rn.164817) was “+”, the “Behavior of gene caused by administration of chemical substance, Gene No. 6026” value ([2]; gene group (C), Unigene No. Rn.167685) was “−” and the “Behavior of gene caused by administration of chemical substance, Gene No. 154” value ([2]; gene group (C), Unigene No. Rn.185941) was “+”. For the same molecule, the “Behavior of gene caused by administration of chemical substance, Gene No. 1993” value ([2]; gene group (C), Unigene No. Rn.18728) was “+”, the “Behavior of gene caused by administration of chemical substance, Gene No. 813” value ([2]; gene group (C), Unigene No. Rn.201760) was “−” and the “Behavior of gene caused by administration of chemical substance, Gene No. 2494” value ([2]; gene group (C), Unigene No. Rn.23969) was “−”. The “Behavior of gene caused by administration of chemical substance, Gene No. 2546” value ([2]; gene group (C), Unigene No. Rn.24561) was “+”, the “Behavior of gene caused by administration of chemical substance, Gene No. 3776” value ([2]; gene group (C), Unigene No. Rn.43232) was “+” and the “Behavior of gene caused by administration of chemical substance, Gene No. 3929” value ([2]; gene group (C), Unigene No. Rn.4620) was “+”. For the same molecule, the “Behavior of gene caused by administration of chemical substance, Gene No. 1119” value ([2]; gene group (C), Unigene No. Rn.9757) was “+”, the “Behavior of gene caused by administration of chemical substance, Gene No. 6742” value ([2]; gene group (C), Unigene No. Rn.9779) was “−” and the “Behavior of gene caused by administration of chemical substance, Gene No. 5634” value ([2]; gene group (C), Unigene No. Rn.9862) was “+”. The “Behavior of gene caused by administration of chemical substance, Gene No. 5726” value ([2]; gene group (D), Unigene No. Rn.9939) was “+”, the Carcinogenicity ([3]; classification of the substance (C+/C−)) was “C−” and the Liver carcinogenicity ([4]; classification of the substance (Cr+/Cr−)) was “Cr−”.
In the case of `CC(=O)Nc1cccc2c1-c1ccccc1C2` [TS061, 4-Acetylaminofluorene], the “Mutagenicity by Ames test” value ([1]; classification M+/M−) is listed as “M+”, the “Behavior of gene caused by administration of chemical substance” value ([2]; Gene No. 154, Rn.185941, group (C)) is listed as “−” and the “Behavior of gene caused by administration of chemical substance” value ([2]; Gene No. 533, Rn.106184, group (C)) is listed as “−”. The “Behavior of gene caused by administration of chemical substance” value ([2]; Gene No. 725, Rn.108075, group (C)) was “−”, the “Behavior of gene caused by administration of chemical substance” value ([2]; Gene No. 813, Rn.201760, group (C)) was “−” and the “Behavior of gene caused by administration of chemical substance” value ([2]; Gene No. 893, Rn.164817, group (C)) was “−”. For the same molecule, the “Behavior of gene caused by administration of chemical substance” value ([2]; Gene No. 1119, Rn.9757, group (C)) was “−”, the “Behavior of gene caused by administration of chemical substance” value ([2]; Gene No. 1131, Rn.144946, group (C)) was “−” and the “Behavior of gene caused by administration of chemical substance” value ([2]; Gene No. 1163, Rn.11766, group (C)) was “+”. The “Behavior of gene caused by administration of chemical substance” value ([2]; Gene No. 1334, Rn.120914, group (C)) was “−”, the “Behavior of gene caused by administration of chemical substance” value ([2]; Gene No. 1494, Rn.1430, group (B)) was “−” and the “Behavior of gene caused by administration of chemical substance” value ([2]; Gene No. 1562, Rn.14744, group (C)) was “−”. The “Behavior of gene caused by administration of chemical substance” value ([2]; Gene No. 1741, Rn.1647, group (C)) was “−”, the “Behavior of gene caused by administration of chemical substance” value ([2]; Gene No. 1993, Rn.18728, group (C)) was “−” and the “Behavior of gene caused by administration of chemical substance” value ([2]; Gene No. 2026, Rn.167075, group (A)) was “+”. The “Behavior of gene caused by administration of chemical substance” value ([2]; Gene No. 2045, Rn.19329, group (B)) was “−”, the “Behavior of gene caused by administration of chemical substance” value ([2]; Gene No. 2203, Rn.21240, group (B)) was “−” and the “Behavior of gene caused by administration of chemical substance” value ([2]; Gene No. 2494, Rn.23969, group (C)) was “−”. For the same molecule, the “Behavior of gene caused by administration of chemical substance” value ([2]; Gene No. 2546, Rn.24561, group (C)) was “−”, the “Behavior of gene caused by administration of chemical substance” value ([2]; Gene No. 3776, Rn.43232, group (C)) was “−” and the “Behavior of gene caused by administration of chemical substance” value ([2]; Gene No. 3929, Rn.4620, group (C)) was “−”. For the same molecule, the “Behavior of gene caused by administration of chemical substance” value ([2]; Gene No. 4095, Rn.119024, group (C)) was “−”, the “Behavior of gene caused by administration of chemical substance” value ([2]; Gene No. 4218, Rn.167075, group (A)) was “−” and the “Behavior of gene caused by administration of chemical substance” value ([2]; Gene No. 4846, Rn.144554, group (A)) was “+”. For the same molecule, the “Behavior of gene caused by administration of chemical substance” value ([2]; Gene No. 4973, Rn.118529, group (C)) was “−”, the “Behavior of gene caused by administration of chemical substance” value ([2]; Gene No. 5600, Rn.9836, group (A)) was “−” and the “Behavior of gene caused by administration of chemical substance” value ([2]; Gene No. 5634, Rn.9862, group (C)) was “−”. The “Behavior of gene caused by administration of chemical substance” value ([2]; Gene No. 5726, Rn.9939, group (D)) was “−”, the “Behavior of gene caused by administration of chemical substance” value ([2]; Gene No. 5878, Rn.143213, group (C)) was “−” and the “Behavior of gene caused by administration of chemical substance” value ([2]; Gene No. 6026, Rn.167685, group (C)) was “−”. For the same molecule, the “Behavior of gene caused by administration of chemical substance” value ([2]; Gene No. 6182, Rn.5834, group (A)) was “+”, the “Behavior of gene caused by administration of chemical substance” value ([2]; Gene No. 6303, Rn.123063, group (C)) was “−” and the “Behavior of gene caused by administration of chemical substance” value ([2]; Gene No. 6620, Rn.120914, group (C)) was “−”. The “Behavior of gene caused by administration of chemical substance” value ([2]; Gene No. 6742, Rn.9779, group (C)) was “−”, the Carcinogenicity ([3]; classification C+/C−) was “C−” and the Liver carcinogenicity ([4]; classification Cr+/Cr−) was “Cr−”.
